Assay results: publication PMC12156185, “Synthesis of Cyclic Hexapeptides via the Hydrazide Method and Evaluation of Their Antibacterial Activities” (Molecules, 2025)
Values after ≈ are worked out from the molar mass of the structure shown. Where a SMILES comes first, the peptide text is derived from it.

Columns and labels:
red blood cells (RBCs) = format: cell-based
Description: (§1) Based on the antimicrobial activity screening, a hemolysis assay was conducted to assess the toxicity of Cy-f1, Cy-f2, and Cy-f4 (Figure 5). For Cy-f1, the hemolysis percentage remained consistently low across all tested concentrations. At 8 μM, Cy-f1 induced approximately 0.12% hemolysis. […] For Cy-f2, the hemolysis percentage also remained consistently low across all tested concentrations. At 8 μM, Cy-f2 induced approximately 0.3% hemolysis, and Cy-f2 stayed stable at 0.3% at 16 μM and 32 μM. […] At 8 μM, it induced approximately 0.7% hemolysis, […]. However, hemolysis increased slightly with higher concentrations, reaching approximately […] and 1.1% at 16 μM and 32 μM, respectively. […] In this experiment Triton X-100 was used as a positive control with a hemolysis rate of 100%.
Figure S4. SEM images of RBCs treated with Cy-f1, Cy-f2, and Cy-f4. (A) SEM images of RBCs
treated with Cy-f1. (B) SEM images of RBCs treated with Cy-f2. (C) SEM images of RBCs treated […]

[1] = test system: Cryptococcus neoformans (BNCC 225501); format: cell-based; details: BNCC 225501, 48 h
Description: (§2) The antimicrobial and antifungal activities of 11 cyclic hexapeptides (Cy-f1 to Cy-f11) were evaluated by determining their minimum inhibitory concentrations (MICs) against a panel of pathogens (Figure 4). These pathogens included Gram-negative bacteria (Escherichia coli, Klebsiella pneumoniae, Pseudomonas aeruginosa), Gram-positive bacteria (Staphylococcus aureus, Bacillus subtilis, Staphylococcus aureus [MRSA], […]), and fungi (Candida tropicalis, Cryptococcus neoformans).
(§3) The antibacterial activity of peptide analogs was tested against different bacterial strains, all purified cyclotides underwent antibacterial testing against Gram-positive bacterium Staphylococcus aureus (BNCC 186335), Bacillus subtilis (BNCC 109047), and Staphylococcus aureus (MRSA, BNCC 330041), Gram-negative bacteria, including Acinetobacter baumannii (BNCC 337173), Pseudomonas aeruginosa (BNCC 125486), and […]. Fungi included Candida parapsilosis (BNCC 336515) and Candida tropicalis (BNCC 340288). All the above strains are from the Henan Provincial Engineering Research Center of Industrial Microorganisms (Henan, China). Escherichia coli (ATCC 25922) and Klebsiella pneumoniae (CMCC(B) 46117) were sourced from Guangzhou HuanKai Microbial Technology Co., Ltd. (Guangzhou, China). The peptides’ MIC was determined using the Clinical and Laboratory Standards Institute broth dilution procedure with slight modifications.
(§4) Each test was performed at least three times. MIC (minimum inhibitory concentration) values were determined as the concentrations of peptides that caused >99% inhibition of bacterial growth.

[2] = test system: Bacillus subtilis (BNCC 109047); format: cell-based
Description: as §2, §3
(§5) Colonies of these bacterial strains were grown in respective agar media, then inoculated in Mueller Hinton (MH) broth and incubated at 37 °C overnight. The peptide solutions were first diluted 1 in 100 (from the stock solution at 20 mM) and then further two-fold dilution in MH broth in a sterile 96-well plate was performed, resulting in 100 µL of broth containing increasing concentrations. Bacteria in their exponential growth phase were diluted in MH broth, and 100 µL of this suspension was added in each well. […] Then, these plates were incubated at 37 °C for 20–22 h.
as §4

[3] = test system: Staphylococcus aureus (MRSA, BNCC 330041); format: cell-based
Description: as §2, §3, §5, §4

[4] = test system: Pseudomonas aeruginosa (BNCC 125486); format: cell-based
Description: as §2, §3, §5, §4

[5] = test system: Acinetobacter baumannii (BNCC 337173); format: cell-based
Description: as §2, §3, §5, §4

[6] = test system: Klebsiella pneumoniae (CMCC(B) 46117); format: cell-based
Description: as §2, §3, §5, §4

[7] = test system: Escherichia coli (ATCC 25922); format: cell-based
Description: as §2, §3, §5, §4

[8] = test system: Staphylococcus aureus (BNCC 186335); format: cell-based
Description: as §2, §3, §5, §4

[9] = test system: Candida tropicalis (BNCC 340288); format: cell-based; details: BNCC 340288, 24 h
Description: as §2, §3
Candida tropicalis was cultured on Sabourad Dextrose Agar (SDA). A single colony was inoculated in YM broth medium and grown overnight at 37 °C while shaking. Peptides were diluted in SDB media by two-fold dilution, resulting in 100 µL of medium containing increasing concentrations. The overnight culture (turbidity at OD600 = 1) was 1000× diluted in SDB. Then 100 µL of this suspension was added to each well, resulting in a final 200 µL suspension containing 2–4 × 10^5 CFU/mL. The plate was incubated at 37 °C for 24 h.
as §4

Candida tropicalis = test: Scanning electron microscopy of treated cells; format: cell-based; details: 4 MIC (32 μM for Cy-f2, 128 μM for Cy-f4), 1 h, 30 °C, 5000× magnification; clotrimazole as positive control
Description: (§6) To investigate the morphological effects of the cyclic peptides Cy-f2 and Cy-f4 on Klebsiella pneumoniae and Candida tropicalis, scanning electron microscopy (SEM) was performed (Figure 7). […] Untreated cells served as controls. Samples were fixed, dehydrated, and coated with gold for SEM imaging at 5000× magnification. Effects on Klebsiella pneumoniae (Panel A). […] The bactericidal efficacy of Cy-f2 and Cy-f4 against Klebsiella pneumoniae was verified through comparative evaluation of the treatment group and the positive control group. Effects on Candida tropicalis (Panel B) untreated C. tropicalis cells in the control group appeared as smooth, spherical to oval-shaped yeast cells with intact cell walls.
(§7) According to the method of He with adjustments, bacteria were grown to the logarithmic phase and then washed and resuspended in sterile PBS to an OD600 of 0.4. They were incubated with an equal volume of AMPs at 4× MIC for 1 h. After incubation, the bacterial pellets were washed three times with PBS and centrifuged at 3500 rpm for 4 min. The pellets were then fixed overnight in 2.5% (w/v) glutaraldehyde. The bacterial samples were dehydrated using a series of ethanol solutions with increasing concentrations (30%, 50%, 70%, 90%, and 100%). After dehydration, the samples were dried and sputter-coated with gold. Bacterial fragmentation was observed using scanning electron microscopy (HITACHI SU5000, Tokyo, Japan). Untreated bacterial suspensions served as the negative control.

Klebsiella pneumoniae [10] = test: Scanning electron microscopy of treated cells; format: cell-based; details: 4 MIC (64 μM for Cy-f2, 128 μM for Cy-f4), 1 h, 37 °C, 5000× magnification; cefoperazone sodium as positive control
Description: as §6, §7

Klebsiella pneumoniae [11] = test: Time-dependent growth kinetics (time-kill); format: cell-based; details: 37 °C
Description: Bacterial viability, expressed as logarithmic colony-forming units per milliliter (Lg CFU/mL), was monitored over 240 min at 37 °C. Results are presented in Figure 6, X as the mean Lg CFU/mL ± standard deviation (SD) from three independent experiments. […] At 2× MIC, a more pronounced effect was observed, with the Lg CFU/mL decreasing to 4.0, a 3.9 Lg CFU/mL reduction. […] This rapid killing profile supports Cy-f2’s potential as an effective antimicrobial peptide.
Klebsiella pneumoniae was cultured in fresh LB nutrient broth at 37 °C following the protocol described by Huang et al., with modifications. Upon reaching the logarithmic growth phase, the bacterial suspension was adjusted to approximately 10^6 CFU/mL and subsequently treated with cyclized f2 at concentrations corresponding to 1×, 2×, and 4× the minimum inhibitory concentration (MIC). Aliquots were collected at 1, 2, 3, and 4 h post-treatment, serially diluted, and plated onto solid agar medium for 24 h incubation. Colony-forming units (CFUs) were enumerated to assess bacterial viability. All experiments were performed in triplicate. Time-dependent growth kinetics were analyzed by plotting bacterial survival (log10 CFU/mL) against time (h) using GraphPad Prism9.5, enabling statistical evaluation of the bactericidal and bacteriostatic effects of the cyclic hexapeptide.

red blood cells = format: cell-based, mouse
Description: as §1
For the hemolytic assay, 2 mL of fresh blood was collected from a healthy mouse into an EDTA-coated tube. All procedures regarding the care and use of laboratory animals adhered to the guidelines established by the Guangxi University Ethics Committee (Approval No.: GXU-2024-063). According to the method of Tan with necessary adjustments. The blood was centrifuged and upper supernatant plasma was removed. […] After centrifugation, 200 µL of supernatant were transferred into a 96-well plate and the absorbance was recorded at 576 nm using a microplate reader. […]

Compound	Morphology of red blood cells by SEM (red blood cells (RBCs))	MIC against C. neoformans [1] [µM]	MIC against B. subtilis [2] [µM]	MIC against MRSA [3] [µM]	MIC against P. aeruginosa [4] [µM]	MIC against A. baumannii [5] [µM]	MIC against K. pneumoniae [6] [µM]	MIC against E. coli [7] [µM]	MIC against S. aureus [8] [µM]	MIC against C. tropicalis [9] [µM]	Cell morphology of C. tropicalis by SEM (Candida tropicalis)	Cell morphology of K. pneumoniae by SEM (Klebsiella pneumoniae [10])	Reduction of bacterial viability after 240 min (Klebsiella pneumoniae [11]; 1× MIC (16 μM)) [Lg CFU/mL]	Bacterial viability after 240 min (Klebsiella pneumoniae [11]; 1× MIC (16 μM), start 6.55 Lg CFU/mL, mean of three independent experiments) [Lg CFU/mL]	Reduction of bacterial viability after 240 min (Klebsiella pneumoniae [11]; 2× MIC (32 μM)) [Lg CFU/mL]	Bacterial viability after 240 min (Klebsiella pneumoniae [11]; 2× MIC (32 μM), mean of three independent experiments) [Lg CFU/mL]	Bacterial viability within 240 min (Klebsiella pneumoniae [11]; 4× MIC (64 μM), mean of three independent experiments)	Hemolysis rate (positive control) (red blood cells) [%]
CC[C@H](C)[C@@H]1NC(=O)[C@H](CCCCN)NC(=O)[C@H](CC(C)C)NC(=O)[C@H](CC(C)C)NC(=O)[C@H](CS)NC(=O)[C@H](Cc2ccccc2)NC1=O [Cy-f1] (cyclo(CLLKIF))	maintained well-preserved cell morphology	16 (≈ 11.5 µg/mL)	4 (≈ 2.87 µg/mL)	16 (≈ 11.5 µg/mL)	128 (≈ 91.9 µg/mL)	32 (≈ 23 µg/mL)	64 (≈ 46 µg/mL)	64 (≈ 46 µg/mL)	8 (≈ 5.74 µg/mL)	64 (≈ 46 µg/mL)	–	–	–	–	–	–	–	–
CC[C@H](C)[C@@H]1NC(=O)[C@H](CCCCN)NC(=O)[C@H](CC(C)C)NC(=O)[C@H](CCCNC(=N)N)NC(=O)[C@H](CS)NC(=O)[C@H](Cc2ccccc2)NC1=O [Cy-f2] (cyclo(CRLKIF))	maintained well-preserved cell morphology	8 (≈ 6.09 µg/mL)	32 (≈ 24.4 µg/mL)	32 (≈ 24.4 µg/mL)	16 (≈ 12.2 µg/mL)	–	16 (≈ 12.2 µg/mL)	16 (≈ 12.2 µg/mL)	8 (≈ 6.09 µg/mL)	16 (≈ 12.2 µg/mL)	surface irregularities, cell wall deformation, and some degree of cell collapse	surface roughening, cell shrinkage, and partial membrane disruption	2.4	5.60	3.9	4.0	below 1.0 Lg CFU/mL	–
CC(C)C[C@@H]1NC(=O)[C@H](CCCCN)NC(=O)[C@H](CS)NC(=O)[C@H](Cc2ccccc2)NC(=O)[C@H](Cc2c[nH]c3ccccc23)NC(=O)[C@H](CCCNC(=N)N)NC1=O [Cy-f4] (cyclo(CKLRWF))	maintained well-preserved cell morphology	32 (≈ 26.7 µg/mL)	–	32 (≈ 26.7 µg/mL)	128 (≈ 107 µg/mL)	64 (≈ 53.4 µg/mL)	32 (≈ 26.7 µg/mL)	–	16 (≈ 13.3 µg/mL)	64 (≈ 53.4 µg/mL)	mild surface roughening and slight deformation but retaining overall structural integrity	extensive membrane rupture, cell deformation, and leakage of intracellular contents	–	–	–	–	–	–
CCN1CCN(C(=O)N[C@@H](C(=O)N[C@@H]2C(=O)N3C(C(=O)O)=C(CSc4nnnn4C)CS[C@H]23)c2ccc(O)cc2)C(=O)C1=O [cefoperazone sodium, reference compound]	–	–	–	–	–	–	–	–	–	–	–	surface roughening, cell shrinkage, and partial membrane disruption	–	–	–	–	–	–
Clc1ccccc1C(c1ccccc1)(c1ccccc1)n1ccnc1 [clotrimazole, reference compound]	–	–	–	–	–	–	–	–	–	–	fragmentation and shrinkage	–	–	–	–	–	–	–
Triton X-100	–	–	–	–	–	–	–	–	–	–	–	–	–	–	–	–	–	100
